According to patent EP4745153A1, “GLP-1, GIP AND GCG RECEPTOR […] USE THEREOF” (Jiangsu Hengrui Pharmaceuticals Co., Ltd., priority 2023, dated 2025):
Where two headings read alike, the source gives them in different places. Starred links: 1 amine or outer side, 2 acyl side, 3 side chain; linkers in the order of their positions; H or OH if unused. Non-standard residues stand in square brackets, D forms with d. Residues, ends and D or L forms follow the SMILES beside them. Groups on a side chain read outwards from the residue. *: point of attachment. C20 diacid = O=C(O)CCCCCCCCCCCCCCCCCCC(=O)*; γGlu = O=C(O)[C@H](CCC(=O)[*:2])N[*:1]; AEEA = NCCOCCOCC(=O)O; Aib = CC(C)(N)C(=O)O

Tests used:
[1] = In vivo efficacy in diet-induced obesity (DIO) mouse model; design: species or system C57BL/6J mice; conditions: 10 nmol/kg subcutaneous once daily for 24 days; for body weight reduction at the experimental endpoint: DIO mice
Excerpt: In this example, a DIO mouse model established by high-fat diet induction was used to evaluate the effects on and improvement of obesity and diabetes-related indicators in DIO mice after subcutaneous injection of some of the compounds in the present disclosure.
4.1 Experimental methods: Obese male C57BL/6J mice (23-24 weeks old, obtained from Beijing Vital River Laboratory Animal Technology Co., Ltd.) induced by a high-fat diet were purchased. Six-week-old male C57BL/6J mice were fed a 60% high-fat diet (RD D12492) until their body weight reached 45-50g to obtain DIO model mice. After arriving at the facility and undergoing a week of acclimatization feeding, the animals were randomly divided into groups according to their body weight and administered vehicle (model group), LY3437943, Compound 15, Compound 16, Compound 17 and Compound 18 via subcutaneous injection in the neck. The compound was administered at a dose of 10 nmol/kg, and the frequency of administration was once daily via subcutaneous injection for 24 days. Each group contained 5 DIO mice. According to the experimental design, the body weight of each mouse was weighed and recorded daily at 3 pm or before administration, the average body weight of each group of mice was calculated, and a curve of body weight change over time was plotted. After the experiment, the fat and other organs of the mice were removed from various parts of the body, weighed, and recorded.

[2] = In vivo efficacy in diet-induced obesity (DIO) rat model; conditions: DIO rats; for 24h food intake compared with the model group / cumulative food intake compared with the model group: after dose adjustment; for cumulative food intake: entire administration period (before and after dose adjustment)
Description: In this experiment, a DIO rat model established on a 45% high-fat diet (HFD) was used to evaluate the effects of compounds on obesity-related indicators in DIO rats.
After one week of acclimatization, all rats were randomly divided into two groups: a normal group and a model group. The rats in the model group were then fed 45% HFD (Medison: MD12032), while the rats in the normal group were fed normal food. The body weight of the rats was measured weekly to monitor the modeling process.
DIO rats fed a high-fat diet for 37 weeks were weighed, and 75 DIO rats (approximately 1100g) and 8 rats (approximately 800g) on a normal diet (Chow diet) were selected and separated into individual cages. Each cage was fed approximately 100g of food at a time, and the food was changed every 48 hours. A preliminary sham dose experiment was then conducted. Subcutaneous acupuncture was performed on the neck once daily at 4 pm for 9 consecutive days. Body weight was measured before each acupuncture session and the effect of sham dose on body weight was observed. A curve of body weight changes over time was plotted. The formal dosing experiment was initiated after the body weight had stabilized.
Six Chow diet rats (weighing approximately 800g) and 30 HFD rats (weighing approximately 1100g) were selected through a preliminary sham dose experiment for subsequent dosing experiments. […] During the experiment, all rats were housed in single cages. The compound was dissolved in PBS solution at pH 7.4. On the day of grouping (Day 1), rats in each group were given the drug by subcutaneous injection in the neck according to their body weight, once daily (QD), as detailed in Table 9. […] The body weight was measured once daily at 15:00 or before administration, and a curve of body weight changes over time was plotted. Food intake: 1-7 days, measured once daily at 15:00 or before administration; 8-40 days, measured once every three days at 15:00 or before administration. A curve of changes in daily/cumulative food intake over time was plotted. Table 9. Dosing information for experimental groups

[3] = Pharmacokinetics in mice after single intravenous injection; design: species or system C57 mice; conditions: mouse, in vivo, male C57 mice, single intravenous dose 200 nmol/kg, plasma
Outline: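 Plasma concentrations were measured by positive-mode ESI LC-MS/MRM, with verapamil as internal standard, at time points from 5 min to 72 h. Samples came from three male C57 mice per compound, aged 4-6 weeks, dosed once intravenously with 200 nmol/kg in 1×PBS; PK parameters were derived with PKSolver.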

human GIPR = biological target: T1, human GIPR (Homo sapiens, UniProt P48546); assay: cAMP HTRF agonist activity assay in CHO-K1 cells expressing GIPR; type: cell-based; as to Activity against human GIPR (EC50 nM): 5% FBS, 0.1% Casein
T1 construct: expressed in transfected cells; host or cells: CHO-K1 clonal cell line
T1 sequence (P48546 22-466): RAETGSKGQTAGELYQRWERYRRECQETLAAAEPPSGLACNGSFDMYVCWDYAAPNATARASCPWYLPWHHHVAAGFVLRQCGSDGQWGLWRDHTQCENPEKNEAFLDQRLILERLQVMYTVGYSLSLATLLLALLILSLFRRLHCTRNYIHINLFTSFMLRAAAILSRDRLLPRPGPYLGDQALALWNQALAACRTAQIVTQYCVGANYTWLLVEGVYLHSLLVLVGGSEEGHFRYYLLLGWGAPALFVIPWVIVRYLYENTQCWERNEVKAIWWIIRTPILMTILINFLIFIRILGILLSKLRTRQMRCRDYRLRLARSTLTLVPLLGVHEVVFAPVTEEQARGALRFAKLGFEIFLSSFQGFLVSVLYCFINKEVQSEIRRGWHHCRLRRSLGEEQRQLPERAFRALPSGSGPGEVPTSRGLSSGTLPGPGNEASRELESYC
Outline: (§1)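 cAMP accumulation measured by competitive HTRF after 30 min incubation of polypeptides with 5000 receptor-expressing CHO-K1 cells/well at 37°C. Percent of maximal response versus concentration fitted to a four-parameter logistic to give relative EC50.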

human GLP-1R = biological target: T2, human GLP-1R (Homo sapiens, UniProt P43220); assay: cAMP HTRF agonist activity assay in CHO-K1 cells expressing GLP-1R; type: cell-based; conditions: read-out: Activity against human GLP-1R (EC50 nM); also: 5% FBS, 0.1% Casein
T2 construct: expressed in transfected cells; host or cells: CHO-K1 clonal cell line
T2 sequence (P43220 24-463): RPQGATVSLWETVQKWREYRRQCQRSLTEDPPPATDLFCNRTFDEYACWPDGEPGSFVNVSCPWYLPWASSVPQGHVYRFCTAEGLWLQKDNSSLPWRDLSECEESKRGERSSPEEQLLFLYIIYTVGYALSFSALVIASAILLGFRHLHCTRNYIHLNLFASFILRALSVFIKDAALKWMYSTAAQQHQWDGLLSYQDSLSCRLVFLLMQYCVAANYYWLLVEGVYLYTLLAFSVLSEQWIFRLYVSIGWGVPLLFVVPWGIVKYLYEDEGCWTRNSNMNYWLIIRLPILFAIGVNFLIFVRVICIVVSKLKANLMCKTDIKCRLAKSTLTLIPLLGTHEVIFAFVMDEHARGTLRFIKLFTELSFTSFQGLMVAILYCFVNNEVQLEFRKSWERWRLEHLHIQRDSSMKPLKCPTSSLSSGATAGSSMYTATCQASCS
Outline: as §1

human GCGR = biological target: T3, human GCGR (Homo sapiens, UniProt P47871); assay: cAMP HTRF agonist activity assay in CHO-K1 cells expressing GCGR; type: cell-based; conditions: read-out: Activity against human GCGR (EC50 nM); also: 5% FBS, 0.1% Casein
T3 construct: expressed in transfected cells; host or cells: CHO-K1 clonal cell line
T3 sequence (P47871 26-477): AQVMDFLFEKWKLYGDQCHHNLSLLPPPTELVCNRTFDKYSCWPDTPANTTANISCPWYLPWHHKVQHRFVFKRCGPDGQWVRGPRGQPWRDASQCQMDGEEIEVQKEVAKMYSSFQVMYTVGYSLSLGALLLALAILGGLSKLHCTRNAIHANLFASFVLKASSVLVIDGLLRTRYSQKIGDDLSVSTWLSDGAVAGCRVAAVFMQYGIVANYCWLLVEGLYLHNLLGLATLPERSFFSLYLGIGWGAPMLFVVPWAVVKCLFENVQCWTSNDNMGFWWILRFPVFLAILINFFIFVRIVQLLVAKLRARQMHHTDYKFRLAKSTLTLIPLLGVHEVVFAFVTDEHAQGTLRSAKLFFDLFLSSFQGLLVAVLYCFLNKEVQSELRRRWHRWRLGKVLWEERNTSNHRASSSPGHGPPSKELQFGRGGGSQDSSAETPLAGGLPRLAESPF
Outline: as §1

| SMILES | body weight of DIO mice compared with the test group given the vehicle [1] | final body weight relative to body weight of mice on a normal diet (Chow) ([1]; indicating good safety) | body weight reduction at the experimental endpoint [1] | 24h food intake compared with the model group ([2]; 3 nmol/kg subcutaneous QD) | cumulative food intake compared with the model group ([2]; 3 nmol/kg subcutaneous QD) | cumulative food intake ([2]; 0.3 then 3 nmol/kg subcutaneous QD) | body weight loss at the end of the experiment ([2]; subcutaneous QD, 0.3 nmol/kg adjusted to 3 nmol/kg from day 15) | body weight compared with the model group ([2]; subcutaneous QD, 1 nmol/kg, before adjusting the administration dose) | AUC(0-inf) [3] | C0 [3] | clearance ([3]; read-out: CLp) | half-life ([3]; read-out: T1/2 (converted)) | EC50 (human GIPR) | EC50 (human GLP-1R) | EC50 (human GCGR) | 24h food intake compared with the model group ([2]; 10 nmol/kg subcutaneous QD) | cumulative food intake compared with the model group ([2]; 10 nmol/kg subcutaneous QD) | cumulative food intake ([2]; 1 then 10 nmol/kg subcutaneous QD) | body weight loss at the end of the experiment ([2]; subcutaneous QD, 1 nmol/kg adjusted to 10 nmol/kg from day 15) | EC50 (human GIPR; read-out: Activity against human GIPR (EC50 nM)) |
| --- | --- | --- | --- | --- | --- | --- | --- | --- | --- | --- | --- | --- | --- | --- | --- | --- | --- | --- | --- | --- |
| CC[C@H](C)[C@H](NC(=O)[C@H](CO)NC(=O)[C@H](Cc1ccc(O)cc1)NC(=O)[C@H](CC(=O)O)NC(=O)[C@H](CO)NC(=O)[C@@H](NC(=O)[C@H](Cc1ccccc1)NC(=O)[C@@H](NC(=O)CNC(=O)[C@H](Cc1c[nH]cn1)NC(=O)C(C)(C)NC(=O)[C@@H](N)Cc1c[nH]cn1)[C@@H](C)O)[C@@H](C)O)C(=O)N[C@@H](CC(C)C)C(=O)N[C@@H](CC(C)C)C(=O)N[C@@H](CCC(=O)O)C(=O)N[C@@H](CCCCNC(=O)COCCOCCNC(=O)COCCOCCNC(=O)CC[C@H](NC(=O)CCCCCCCCCCCCCCCCCCC(=O)O)C(=O)O)C(=O)N[C@@H](CCCCN)C(=O)N[C@@H](C)C(=O)N[C@@H](C)C(=O)N[C@@H](CCC(N)=O)C(=O)N[C@@H](CCC(=O)O)C(=O)N[C@@H](Cc1ccccc1)C(=O)N[C@H](C(=O)N[C@@H](CCC(=O)O)C(=O)N[C@@H](Cc1c[nH]c2ccccc12)C(=O)N[C@@H](CC(C)C)C(=O)N[C@@H](CC(C)C)C(=O)N[C@@H](C)C(=O)NCC(=O)NCC(=O)N1CCC[C@H]1C(=O)N[C@@H](CO)C(=O)N[C@@H](CO)C(=O)NCC(=O)N[C@@H](C)C(=O)N1CCC[C@H]1C(=O)N1CCC[C@H]1C(=O)N1CCC[C@H]1C(=O)N[C@@H](CO)C(N)=O)C(C)C [Compound 0120] (H-H[Aib]HGTFTSDYSILLEK([AEEA-AEEA-γGlu-C20 diacid])KAAQEFVEWLLAGGPSSGAPPPS-NH2) | significant reduction in body weight | ≥ 80% | 36.6% | significantly reduced | significantly reduced | 258.8 ± 23.5 g | 30.2% | decreasing trend | 94.1 µM·h | 9.93 µM | 2.04 mL/h/kg | 14.7 h | 0.002 nM | – | – | – | – | – | – | – |
| CC[C@H](C)[C@H](NC(=O)[C@H](Cc1ccccc1)NC(=O)[C@H](C)NC(=O)C(C)(C)NC(=O)[C@H](CCC(N)=O)NC(=O)[C@H](C)NC(=O)[C@H](CCCCNC(=O)COCCOCCNC(=O)CC[C@H](NC(=O)CCCCCCCCCCCCCCCCCCC(=O)O)C(=O)O)NC(=O)[C@H](CCCCN)NC(=O)[C@H](CC(=O)O)NC(=O)[C@H](CC(C)C)NC(=O)[C@](C)(CC(C)C)NC(=O)[C@@H](NC(=O)[C@H](CO)NC(=O)[C@H](Cc1ccc(O)cc1)NC(=O)[C@H](CC(=O)O)NC(=O)[C@H](CO)NC(=O)[C@@H](NC(=O)[C@H](Cc1ccccc1)NC(=O)[C@@H](NC(=O)CNC(=O)[C@H](CCC(N)=O)NC(=O)C(C)(C)NC(=O)[C@@H](N)Cc1ccc(O)cc1)[C@@H](C)O)[C@@H](C)O)[C@@H](C)CC)C(=O)N[C@@H](CCC(=O)O)C(=O)N[C@@H](Cc1ccc(O)cc1)C(=O)N[C@@H](CC(C)C)C(=O)N[C@@H](CC(C)C)C(=O)N[C@@H](CCC(=O)O)C(=O)NCC(=O)NCC(=O)N1CCC[C@H]1C(=O)N[C@@H](CO)C(=O)N[C@@H](CO)C(=O)NCC(=O)N[C@@H](C)C(=O)N1CCC[C@H]1C(=O)N1CCC[C@H]1C(=O)N1CCC[C@H]1C(=O)N[C@@H](CO)C(N)=O [LY3437943, reference compound] | significant reduction in body weight | – | 30.4% | – | – | – | – | – | – | – | – | – | – | 0.08 nM | 0.412 nM | significantly reduced | significantly reduced | 273.8 ± 15.0 g | 29.4% | 0.002 nM |
